Experimental data: ChEMBL document CHEMBL1157703, “Synthesis, pharmacological studies and molecular modeling of some tetracyclic 1,3-diazepinium chlorides” (Bioorg Med Chem, 2010)
Calls of active or inactive are those of the source. The rule behind the calls is not given here.

Legend:
Mus musculus [1] = species on record: Mus musculus; test: Effect on behavioral activity in Albino mouse assessed as inhibition of diazepam-induced paralysis at 0.2 ml/10 g by hippocratic screen; type: functional, organism-based
Mus musculus [2] = species on record: Mus musculus; test: Effect on behavioral activity in Albino mouse assessed as inhibition of diazepam-induced ataxia at 0.2 ml/10 g after 5 mins by hippocratic screen; type: functional, organism-based
Mus musculus [3] = species on record: Mus musculus; test: Effect on behavioral activity in Albino mouse assessed as inhibition of diazepam-induced loss of righting reflex at 0.2 ml/10 g after 2 hrs by hippocratic screen; type: functional, organism-based
Mus musculus [4] = species on record: Mus musculus; test: Effect on behavioral activity in Albino mouse assessed as inhibition of diazepam-induced decrease in respiratory rate at 0.2 ml/10 g by hippocratic screen; type: functional, organism-based
Mus musculus [5] = species on record: Mus musculus; test: CNS toxicity in Albino mouse assessed as loss of analgesic activity at 0.2 ml/10 g by hippocratic screen; type: organism-based; conditions: in vivo
Mus musculus [6] = test: CNS toxicity in Albino mouse assessed as anesthetic response at 0.2 ml/10 g by hippocratic screen; type: organism-based; conditions: in vivo
Mus musculus [7] = species on record: Mus musculus; test: CNS toxicity in Albino mouse assessed as paralysis at 0.2 ml/10 g by hippocratic screen; type: organism-based; conditions: in vivo
Mus musculus [8] = species on record: Mus musculus; test: CNS toxicity in Albino mouse assessed as change in respiratory rate at 0.2 ml/10 g by hippocratic screen; type: organism-based; conditions: in vivo
Mus musculus [9] = species on record: Mus musculus; test: Effect on behavioral activity in Albino mouse assessed as inhibition of diazepam-induced tremors at 0.2 ml/10 g by hippocratic screen; type: functional, organism-based
Mus musculus [10] = species on record: Mus musculus; test: Effect on behavioral activity in Albino mouse assessed as inhibition of diazepam-induced loss of analgesia at 0.2 ml/10 g by hippocratic screen; type: functional, organism-based
Mus musculus [11] = species on record: Mus musculus; test: Effect on behavioral activity in Albino mouse assessed as inhibition of diazepam-induced decrease in motor activity at 0.2 ml/10 g for 10 to 15 mins by hippocratic screen; type: functional, organism-based
Mus musculus [12] = species on record: Mus musculus; test: Effect on behavioral activity in Albino mouse assessed as inhibition of diazepam-induced anesthesia at 0.2 ml/10 g by hippocratic screen; type: functional, organism-based
Mus musculus [13] = species on record: Mus musculus; test: CNS toxicity in Albino mouse assessed as loss of righting reflex at 0.2 ml/10 g by hippocratic screen; type: organism-based; conditions: in vivo
Mus musculus [14] = species on record: Mus musculus; test: Effect on behavioral activity in Albino mouse assessed as inhibition of diazepam-induced pinnal reflex at 0.2 ml/10 g by hippocratic screen; type: functional, organism-based
Mus musculus [15] = species on record: Mus musculus; test: CNS toxicity in Albino mouse assessed as pinnal reflex at 0.2 ml/10 g by hippocratic screen; type: organism-based; conditions: in vivo
Mus musculus [16] = species on record: Mus musculus; test: CNS toxicity in Albino mouse assessed as startle reaction at 0.2 ml/10 g by hippocratic screen; type: organism-based; conditions: in vivo
Mus musculus [17] = species on record: Mus musculus; test: Effect on behavioral activity in Albino mouse assessed as inhibition of diazepam-induced startle reaction at 0.2 ml/10 g by hippocratic screen; type: functional, organism-based
Mus musculus [18] = species on record: Mus musculus; test: CNS toxicity in Albino mouse assessed as loss of screen grip at 0.2 ml/10 g by hippocratic screen; type: organism-based; conditions: in vivo
Mus musculus [19] = species on record: Mus musculus; test: Effect on behavioral activity in Albino mouse assessed as inhibition of diazepam-induced loss of screen grip at 0.2 ml/10 g by hippocratic screen; type: functional, organism-based
Mus musculus [20] = species on record: Mus musculus; test: CNS toxicity in Albino mouse assessed as decrease in motor activity at 0.2 ml/10 g by hippocratic screen; type: organism-based; conditions: in vivo
Mus musculus [21] = species on record: Mus musculus; test: CNS toxicity in Albino mouse assessed as ataxia at 0.2 ml/10 g by hippocratic screen; type: organism-based; conditions: in vivo
Mus musculus [22] = species on record: Mus musculus; test: CNS toxicity in Albino mouse assessed as tremors at 0.2 ml/10 g by hippocratic screen; type: organism-based; conditions: in vivo
Mus musculus [23] = species on record: Mus musculus; test: Effect on behavioral activity in Albino mouse assessed as inhibition of diazepam-induced loss of righting reflex at 0.2 ml/10 g after 1 hr by hippocratic screen; type: functional, organism-based
[24] = biological target: T1, GABA A receptor alpha-3/beta-2/gamma-2 (Homo sapiens, UniProt P18507+P34903+P47870); test: Displacement of [3H]flunitrezepam from GABAA alpha-3-beta-2-gamma-2 receptor by liquid scintillation counting; type: protein-complex assay
T1 sequence (P47870 whole entry): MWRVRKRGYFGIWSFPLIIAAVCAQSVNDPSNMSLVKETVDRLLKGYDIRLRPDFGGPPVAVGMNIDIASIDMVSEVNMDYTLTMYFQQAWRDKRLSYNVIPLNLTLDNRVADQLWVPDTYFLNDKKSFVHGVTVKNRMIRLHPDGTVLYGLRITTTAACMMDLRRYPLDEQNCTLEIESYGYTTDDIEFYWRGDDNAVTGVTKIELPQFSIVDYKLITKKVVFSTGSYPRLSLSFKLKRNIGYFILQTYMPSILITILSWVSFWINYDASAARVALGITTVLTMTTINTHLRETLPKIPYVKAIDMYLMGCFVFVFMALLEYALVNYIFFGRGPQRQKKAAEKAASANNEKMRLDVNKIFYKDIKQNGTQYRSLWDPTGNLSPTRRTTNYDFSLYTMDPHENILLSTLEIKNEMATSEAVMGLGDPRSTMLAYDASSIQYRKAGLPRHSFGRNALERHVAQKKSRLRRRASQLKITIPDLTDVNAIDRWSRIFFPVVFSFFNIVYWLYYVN
T1 sequence (P18507 whole entry): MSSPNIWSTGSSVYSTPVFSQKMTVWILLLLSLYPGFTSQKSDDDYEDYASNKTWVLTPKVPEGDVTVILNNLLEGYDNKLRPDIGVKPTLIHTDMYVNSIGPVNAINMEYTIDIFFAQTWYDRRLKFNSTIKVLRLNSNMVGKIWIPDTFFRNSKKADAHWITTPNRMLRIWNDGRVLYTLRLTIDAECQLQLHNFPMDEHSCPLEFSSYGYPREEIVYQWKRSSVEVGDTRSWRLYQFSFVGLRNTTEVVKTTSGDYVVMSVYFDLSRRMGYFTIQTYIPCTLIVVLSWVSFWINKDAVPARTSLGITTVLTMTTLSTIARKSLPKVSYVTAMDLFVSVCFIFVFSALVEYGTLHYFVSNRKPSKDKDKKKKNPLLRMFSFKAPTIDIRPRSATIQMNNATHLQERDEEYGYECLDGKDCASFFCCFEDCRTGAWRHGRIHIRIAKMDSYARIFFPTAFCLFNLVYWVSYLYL
T1 sequence (P34903 whole entry): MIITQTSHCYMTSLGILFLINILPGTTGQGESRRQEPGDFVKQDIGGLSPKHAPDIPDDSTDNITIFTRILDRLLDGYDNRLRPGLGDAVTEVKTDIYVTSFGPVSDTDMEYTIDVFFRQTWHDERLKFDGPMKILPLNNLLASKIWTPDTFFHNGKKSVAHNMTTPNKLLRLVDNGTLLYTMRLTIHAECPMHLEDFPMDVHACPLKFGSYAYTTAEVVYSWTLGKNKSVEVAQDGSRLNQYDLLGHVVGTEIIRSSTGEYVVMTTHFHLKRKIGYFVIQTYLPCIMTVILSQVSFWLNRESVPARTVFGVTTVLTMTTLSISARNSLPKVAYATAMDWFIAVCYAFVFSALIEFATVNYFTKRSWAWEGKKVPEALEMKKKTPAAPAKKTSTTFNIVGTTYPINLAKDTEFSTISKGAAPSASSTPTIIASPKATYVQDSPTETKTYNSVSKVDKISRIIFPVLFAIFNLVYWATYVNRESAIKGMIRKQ

[25] = biological target: T2, GABA A receptor alpha-2/beta-2/gamma-2 (Homo sapiens, UniProt P18507+P47869+P47870); test: Displacement of [3H]flunitrezepam from GABA-A alpha-2-beta-2-gamma-2 receptor by liquid scintillation counting; type: protein-complex assay
T2 sequence (P47870 whole entry): T1 sequence (P47870 whole entry)
T2 sequence (P18507 whole entry): T1 sequence (P18507 whole entry)
T2 sequence (P47869 whole entry): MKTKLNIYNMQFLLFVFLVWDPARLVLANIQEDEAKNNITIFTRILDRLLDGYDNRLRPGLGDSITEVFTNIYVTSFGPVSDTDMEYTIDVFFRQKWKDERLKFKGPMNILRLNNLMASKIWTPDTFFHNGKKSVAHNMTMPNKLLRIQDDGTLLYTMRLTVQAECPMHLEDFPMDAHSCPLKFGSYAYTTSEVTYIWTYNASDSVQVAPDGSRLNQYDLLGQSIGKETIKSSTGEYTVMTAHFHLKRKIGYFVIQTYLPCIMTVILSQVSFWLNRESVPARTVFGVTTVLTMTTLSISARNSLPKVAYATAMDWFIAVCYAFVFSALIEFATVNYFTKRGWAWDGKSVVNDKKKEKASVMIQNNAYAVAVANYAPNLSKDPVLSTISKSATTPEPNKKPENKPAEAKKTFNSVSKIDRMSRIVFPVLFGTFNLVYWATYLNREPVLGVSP

[26] = biological target: T3, GABA-A receptor; alpha-1/beta-2/gamma-2 (Homo sapiens, UniProt P14867+P18507+P47870); test: Displacement of [3H]flunitrezepam from GABA-A alpha-1-beta-2-gamma-2 receptor by liquid scintillation counting; type: protein-complex assay
T3 sequence (P14867 whole entry): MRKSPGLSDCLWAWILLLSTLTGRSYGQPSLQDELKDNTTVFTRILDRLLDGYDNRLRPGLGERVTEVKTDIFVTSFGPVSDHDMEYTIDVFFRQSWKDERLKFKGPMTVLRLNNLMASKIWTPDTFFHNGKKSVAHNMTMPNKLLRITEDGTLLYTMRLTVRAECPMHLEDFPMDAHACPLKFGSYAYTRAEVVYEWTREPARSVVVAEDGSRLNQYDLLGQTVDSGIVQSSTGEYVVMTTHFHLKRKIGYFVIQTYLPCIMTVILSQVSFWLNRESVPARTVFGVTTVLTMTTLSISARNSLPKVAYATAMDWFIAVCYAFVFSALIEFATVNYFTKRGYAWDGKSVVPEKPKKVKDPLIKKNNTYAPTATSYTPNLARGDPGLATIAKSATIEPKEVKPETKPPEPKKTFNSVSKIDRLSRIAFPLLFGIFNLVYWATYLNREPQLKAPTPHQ
T3 sequence (P47870 whole entry): T1 sequence (P47870 whole entry)
T3 sequence (P18507 whole entry): T1 sequence (P18507 whole entry)

[27] = biological target: T4, Gamma-aminobutyric acid receptor subunit alpha-5 (Homo sapiens, UniProt P18507+P31644+P47870); test: Displacement of [3H]flunitrezepam from GABAA alpha-5-beta-2-gamma-2 receptor by liquid scintillation counting
T4 sequence (P31644 whole entry): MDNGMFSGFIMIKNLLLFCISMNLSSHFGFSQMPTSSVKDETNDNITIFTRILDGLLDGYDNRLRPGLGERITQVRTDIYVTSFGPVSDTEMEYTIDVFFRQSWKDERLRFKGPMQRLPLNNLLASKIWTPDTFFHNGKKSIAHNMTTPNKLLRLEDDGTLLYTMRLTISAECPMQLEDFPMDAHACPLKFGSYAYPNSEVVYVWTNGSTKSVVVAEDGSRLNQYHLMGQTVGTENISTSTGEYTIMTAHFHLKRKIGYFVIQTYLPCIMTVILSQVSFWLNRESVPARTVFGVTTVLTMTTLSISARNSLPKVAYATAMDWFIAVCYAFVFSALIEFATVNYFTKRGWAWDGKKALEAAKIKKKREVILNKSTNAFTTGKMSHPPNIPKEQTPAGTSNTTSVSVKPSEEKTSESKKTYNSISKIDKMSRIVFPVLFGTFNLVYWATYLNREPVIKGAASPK

[28] = biological target: Sodium-dependent serotonin transporter (Homo sapiens) (UniProt P31645); test: Inhibition of SERT PDSP analysis; parameters: scale not given: the % may be the effect or the level left
Sodium-dependent serotonin transporter (Homo sapiens), sequence (P31645 whole entry, looked up): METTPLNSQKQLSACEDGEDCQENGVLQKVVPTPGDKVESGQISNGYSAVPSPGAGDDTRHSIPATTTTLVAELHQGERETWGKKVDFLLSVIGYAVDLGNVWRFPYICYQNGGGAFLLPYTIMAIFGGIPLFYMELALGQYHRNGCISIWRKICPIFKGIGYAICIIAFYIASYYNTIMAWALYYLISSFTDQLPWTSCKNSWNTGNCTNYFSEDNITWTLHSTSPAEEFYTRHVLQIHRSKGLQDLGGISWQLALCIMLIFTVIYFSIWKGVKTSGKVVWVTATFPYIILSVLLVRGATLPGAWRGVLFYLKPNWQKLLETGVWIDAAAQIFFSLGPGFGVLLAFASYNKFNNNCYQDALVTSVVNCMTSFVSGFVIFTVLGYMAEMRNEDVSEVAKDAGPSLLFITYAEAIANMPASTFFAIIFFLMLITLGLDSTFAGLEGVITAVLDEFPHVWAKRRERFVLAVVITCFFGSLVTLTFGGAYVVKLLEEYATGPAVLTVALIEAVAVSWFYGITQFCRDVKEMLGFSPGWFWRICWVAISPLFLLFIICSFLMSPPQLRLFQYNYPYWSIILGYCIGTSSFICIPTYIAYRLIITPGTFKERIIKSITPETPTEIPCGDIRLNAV

COc1ccc2c3c(oc2c1)C(=O)Nc1cc(C)cc[n+]1C3.[Cl-]
Activity (Mus musculus [1]): inactive | Activity (Mus musculus [2]): inactive | Activity (Mus musculus [3]): inactive | Activity (Mus musculus [4]): inactive | Activity (Mus musculus [5]): Non-toxic | Activity (Mus musculus [6]): Non-toxic | Activity (Mus musculus [7]): Non-toxic | Activity (Mus musculus [8]): Non-toxic | Activity (Mus musculus [9]): inactive | Activity (Mus musculus [10]): inactive | Activity (Mus musculus [11]): Active | Activity (Mus musculus [12]): inactive | Activity (Mus musculus [13]): Non-toxic | Activity (Mus musculus [14]): inactive | Activity (Mus musculus [15]): Non-toxic | Activity (Mus musculus [16]): Non-toxic | Activity (Mus musculus [17]): inactive | Activity (Mus musculus [18]): Non-toxic | Activity (Mus musculus [19]): inactive | Activity (Mus musculus [20]): Non-toxic | Activity (Mus musculus [21]): Non-toxic | Activity (Mus musculus [22]): Non-toxic | Activity (Mus musculus [23]): Active

COc1ccc2c3c(oc2c1)C(=O)Nc1cccc[n+]1C3.[Cl-]
Activity (Mus musculus [1]): inactive | Activity (Mus musculus [2]): inactive | Activity (Mus musculus [3]): inactive | Activity (Mus musculus [4]): inactive | Activity (Mus musculus [5]): Non-toxic | Ki [24]: 1540 nM | Activity (Mus musculus [6]): Non-toxic | Activity (Mus musculus [7]): Non-toxic | Activity (Mus musculus [8]): Non-toxic | Activity (Mus musculus [9]): inactive | Activity (Mus musculus [10]): inactive | Activity (Mus musculus [11]): Active | Ki [25]: 8080 nM | Activity (Mus musculus [12]): inactive | Activity (Mus musculus [13]): Non-toxic | Activity (Mus musculus [14]): Active | Activity (Mus musculus [15]): Non-toxic | Activity (Mus musculus [16]): Non-toxic | Activity (Mus musculus [17]): inactive | Activity (Mus musculus [18]): Non-toxic | Activity (Mus musculus [19]): inactive | Ki [26]: 746 nM | Activity (Mus musculus [20]): Non-toxic | Activity (Mus musculus [21]): Non-toxic | Activity (Mus musculus [22]): Non-toxic | Ki [27]: 2360 nM

NCCc1c[nH]c2ccc(O)cc12
Activity [28]: > 10000%
